The target of assay [1] is T1, GABAA2 receptors (α2, β3, γ2 receptor subunits transfected into Sf9 cells) (Homo sapiens, UniProt P18507+P47869).
T1 construct: host or cells: Sf9 cells (membranes)
Briefly: GABAA2 Binding Method ([3H]-Flunitrazepam displacement). Particulars: [3H]-Flunitrazepam ~2 nM, α2β3γ2 Sf9 membranes, 1 hr at 4° C. The procedure, abridged:
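Displacement of [3H]-flunitrazepam (~2 nM in assay) from recombinant human α2β3γ2 receptors in Sf9 membranes; 1 h incubation at 4 °C, harvest by filtration. Values reported as percent of control, IC50 and Ki.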

In another assay the target is T2, GABAA receptor α2β3γ2 (Homo sapiens, UniProt P18507+P47869).
T2 construct: expressed in transfected cells; host or cells: Xenopus laevis oocytes injected with cRNA
Briefly: Two-electrode voltage-clamp potentiation of GABA EC10 current in Xenopus oocytes, GABAA2. Format: cell-based. Particulars: percentage potentiation of GABA EC10 current divided by that of diazepam. The procedure, abridged: (§1)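 Human GABAA receptors expressed in Xenopus oocytes by cRNA injection (α:β:γ molar ratio ~1:1:10 for α1β2γ2, 1:1:1 for α2β3γ2), recorded 2-10 days later by two-electrode voltage clamp at −60 mV in ND-96, pH 7.5. Modulator preapplied 30 s before GABA at per-oocyte EC10. Peak-current percent potentiation over GABA alone, normalised to diazepam.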

The target of another assay is T3, GABAA receptor α1β2γ2 (Homo sapiens, UniProt P14867+P18507).
T3 construct: expressed in transfected cells; host or cells: Xenopus laevis oocytes injected with cRNA
Briefly: Two-electrode voltage-clamp potentiation of GABA EC10 current in Xenopus oocytes, GABAA1. It counts as cell-based. To be noted: percentage potentiation of GABA EC10 current divided by that of diazepam. The procedure, abridged:
as §1

Assay [2] in a line: EEG protocol (Method JJ), spontaneous EEG in behaving rats. Format: in vivo, Sprague Dawley rats. An excerpt:
In another embodiment, certain compounds of the invention may be useful in treating schizophrenia. In a particular embodiment, certain compounds of the invention may be useful in treating cognitive disorders associated with schizophrenia. The existing non-selective GABAergic agents are generally not suitable for treating information/cognitive processing deficits in schizophrenia due to the unacceptable competing side effects, such as overt sedation and memory impairment. Certain compounds of the invention are capable of selective modification of function at the specific GABAergic synapses affected by the schizophrenic disease state. Therefore, these certain compounds of the invention acting selectively at GABAA α2 subunits may be used for treating cognitive deficits in schizophrenia.
Subjects: Sprague Dawley rats weighing 300-400 g at time of surgery are used as subjects. Rats are maintained>1 week in AstraZeneca vivarium prior to surgical procedures. Rats are housed singly, maintained on a 12:12 light:dark cycle, and fed and watered ad lib for a period of>14 days following surgery. […]
During compound testing sessions, animals are initially allowed to re-acclimate to the operant chamber for 10-20′ minutes prior to a 30-minute baseline session in which performance and EEG are continuously monitored. […]

The results in this text go back to US20080318943A1, “Compounds and Uses Thereof - 848” (ASTRAZENECA AB, priority 2007, published 2008).

pKi: −log10 of the molar value.

T3 sequence (P14867 28-456): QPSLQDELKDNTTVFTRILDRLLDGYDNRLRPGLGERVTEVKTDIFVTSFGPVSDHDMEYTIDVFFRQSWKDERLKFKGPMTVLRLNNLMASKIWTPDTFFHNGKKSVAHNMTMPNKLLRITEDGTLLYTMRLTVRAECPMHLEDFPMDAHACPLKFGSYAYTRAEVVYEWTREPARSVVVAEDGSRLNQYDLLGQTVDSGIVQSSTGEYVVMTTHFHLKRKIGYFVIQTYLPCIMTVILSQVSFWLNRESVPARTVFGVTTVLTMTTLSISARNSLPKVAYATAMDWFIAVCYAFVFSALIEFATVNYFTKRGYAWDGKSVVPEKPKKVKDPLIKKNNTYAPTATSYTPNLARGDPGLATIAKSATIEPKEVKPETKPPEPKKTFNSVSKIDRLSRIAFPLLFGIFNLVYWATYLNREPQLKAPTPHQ
T3 sequence (P47870 25-512 partner limits assumed): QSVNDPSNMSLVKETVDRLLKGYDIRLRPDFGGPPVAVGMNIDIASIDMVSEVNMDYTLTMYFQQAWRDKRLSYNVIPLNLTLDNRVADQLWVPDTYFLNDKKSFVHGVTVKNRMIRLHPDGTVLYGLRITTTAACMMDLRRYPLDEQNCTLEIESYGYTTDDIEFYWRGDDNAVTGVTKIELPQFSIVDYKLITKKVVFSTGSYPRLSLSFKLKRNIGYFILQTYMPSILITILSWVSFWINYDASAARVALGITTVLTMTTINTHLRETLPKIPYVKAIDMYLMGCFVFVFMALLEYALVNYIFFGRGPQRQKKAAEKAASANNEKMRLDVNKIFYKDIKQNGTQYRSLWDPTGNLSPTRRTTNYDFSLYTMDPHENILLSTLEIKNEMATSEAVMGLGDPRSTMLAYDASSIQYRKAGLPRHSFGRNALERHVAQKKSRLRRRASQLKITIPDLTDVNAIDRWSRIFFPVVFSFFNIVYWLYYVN
T3 sequence (P18507 40-475): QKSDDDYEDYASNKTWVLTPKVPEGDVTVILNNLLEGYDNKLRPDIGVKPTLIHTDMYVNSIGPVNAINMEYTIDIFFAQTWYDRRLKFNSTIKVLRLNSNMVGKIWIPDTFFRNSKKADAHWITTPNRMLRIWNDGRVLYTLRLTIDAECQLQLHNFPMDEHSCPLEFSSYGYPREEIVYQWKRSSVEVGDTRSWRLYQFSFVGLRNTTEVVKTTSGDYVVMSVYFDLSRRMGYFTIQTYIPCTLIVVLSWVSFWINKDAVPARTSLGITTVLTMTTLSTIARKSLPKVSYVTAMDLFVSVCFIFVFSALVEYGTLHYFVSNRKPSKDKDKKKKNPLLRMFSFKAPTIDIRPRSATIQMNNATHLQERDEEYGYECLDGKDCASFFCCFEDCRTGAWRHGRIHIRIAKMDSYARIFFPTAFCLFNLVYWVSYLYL
T2 sequence (P47869 29-451): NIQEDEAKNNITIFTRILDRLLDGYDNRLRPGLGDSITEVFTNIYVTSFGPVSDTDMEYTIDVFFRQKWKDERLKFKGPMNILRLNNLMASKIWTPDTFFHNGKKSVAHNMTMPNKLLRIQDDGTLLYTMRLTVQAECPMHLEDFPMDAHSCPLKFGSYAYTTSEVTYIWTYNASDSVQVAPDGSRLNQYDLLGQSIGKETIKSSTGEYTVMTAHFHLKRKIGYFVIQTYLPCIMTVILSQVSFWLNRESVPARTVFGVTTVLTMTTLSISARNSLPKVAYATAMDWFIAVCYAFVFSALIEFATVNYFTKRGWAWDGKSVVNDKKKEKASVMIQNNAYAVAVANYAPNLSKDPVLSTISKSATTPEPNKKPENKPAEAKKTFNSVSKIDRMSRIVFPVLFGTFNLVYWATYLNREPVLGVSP
T2 sequence (P28472 26-473 partner): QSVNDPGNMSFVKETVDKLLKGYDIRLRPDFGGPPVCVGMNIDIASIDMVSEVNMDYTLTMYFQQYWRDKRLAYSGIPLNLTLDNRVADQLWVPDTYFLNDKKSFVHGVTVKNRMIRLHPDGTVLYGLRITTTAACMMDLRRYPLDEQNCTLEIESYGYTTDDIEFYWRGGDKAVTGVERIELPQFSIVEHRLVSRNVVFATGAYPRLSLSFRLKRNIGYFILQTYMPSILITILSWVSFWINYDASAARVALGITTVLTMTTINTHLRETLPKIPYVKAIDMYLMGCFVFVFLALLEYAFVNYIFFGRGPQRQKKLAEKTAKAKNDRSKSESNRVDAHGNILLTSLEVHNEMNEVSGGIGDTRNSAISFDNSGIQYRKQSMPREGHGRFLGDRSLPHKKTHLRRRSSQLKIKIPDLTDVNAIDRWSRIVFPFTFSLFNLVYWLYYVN
T2 sequence (P18507 40-475): as the sequence (P18507 40-475) above
T1 sequence (P47869 29-451): as the sequence (P47869 29-451) above
T1 sequence (P28472 26-473 partner): as the sequence (P28472 26-473 partner) above
T1 sequence (P18507 40-475): as the sequence (P18507 40-475) above

On to `Nc1c2c(nc3c(-c4ccccc4F)cccc13)CN(C1CCC1)C2=O` [Example 124, 9-Amino-2-cyclobutyl-5-(2-fluorophenyl)-2,3-dihydropyrrolo[3,4-b]quinolin-1-one], for which, in assay [1], the pKi (as a rule, the negative decadic logarithm of the Ki, by convention in mol/L) is 9.02. Also, the “Relative Potentiation for GABAA2” value at GABAA receptor α2β3γ2 is given as 0.14. On GABAA receptor α1β2γ2, the “Relative Potentiation for GABAA1” value was −0.016.

In assay [1], `COc1ccc(-c2cccc3c(N)c4c(nc23)CN(C2CCCC2)C4=O)cn1` [Example 147, 9-Amino-2-cyclopentyl-5-(6-methoxypyridin-3-yl)-2,3-dihydropyrrolo[3,4-b]quinolin-1-one] showed a pKi of 7.50. Further, on GABAA receptor α2β3γ2, the “Relative Potentiation for GABAA2” value is listed as 0.23. In addition, the “Relative Potentiation for GABAA1” value on GABAA receptor α1β2γ2 stood at 0.016.

In assay [1], `COc1ncccc1-c1c(F)ccc2c(N)c3c(nc12)CN([C@H]1CCOC1)C3=O` [Example 170, 9-Amino-6-fluoro-5-(2-methoxypyridin-3-yl)-2-(S)-tetrahydrofuran-3-yl-2,3-dihydropyrrolo[3,4-b]quinolin-1-one] showed a pKi of 8.25. Further, the “Relative Potentiation for GABAA2” value on GABAA receptor α2β3γ2 is recorded as 0.19. Besides, the “Relative Potentiation for GABAA1” value at GABAA receptor α1β2γ2 is listed as −0.14.

With `O=C1Nc2ccc(Cl)cc2C(c2ccccc2Cl)=NC1O` (centres unmarked) [Lorazepam], the “spontaneous EEG across a range of oscillation frequencies” value in assay [2] is recorded as “broad changes”.

`Cc1ccc(-c2nc3ccc(C)cn3c2CC(=O)N(C)C)cc1` [zolpidem]: in assay [2], the “spontaneous EEG at gamma frequencies” value was “no significant increase”.
